Measurements from patent publication US11453647B2, “Benzimidazole derivatives as adenosine receptor antagonists” (Merck Patent GmbH, priority 2017, dated 2022).

Legend:
Assay type in all cases: cell-based
human A3 receptor = target: T1, human A3 receptor (Homo sapiens, UniProt P0DMS8); assay: functional cAMP (HTRF) assay, recombinant CHO cells expressing human A3 receptor, forskolin, agonist IB-MECA
T1 construct: expressed in transfected cells; host or cells: CHO
T1 sequence (P0DMS8 1-318): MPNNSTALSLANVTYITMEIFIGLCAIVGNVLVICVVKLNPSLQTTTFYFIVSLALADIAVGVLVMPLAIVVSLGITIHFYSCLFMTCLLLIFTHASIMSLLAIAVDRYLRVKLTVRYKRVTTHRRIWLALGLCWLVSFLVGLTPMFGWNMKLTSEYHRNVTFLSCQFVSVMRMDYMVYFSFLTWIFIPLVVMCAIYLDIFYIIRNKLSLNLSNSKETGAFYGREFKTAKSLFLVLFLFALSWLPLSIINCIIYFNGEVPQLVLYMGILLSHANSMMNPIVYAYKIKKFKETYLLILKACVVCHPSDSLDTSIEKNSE
Method in brief: (§1)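 Normalized HTRF cAMP signals (inhibitor and DMSO controls as references) were curve-fitted; assays used forskolin-stimulated CHO cells with A1 or A3, agonist CPA or IB-MECA respectively, 30 min compound incubation.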

human A1 receptor = target: T2, human A1 receptor (Homo sapiens, UniProt P30542); assay: functional cAMP (HTRF) assay, recombinant CHO cells expressing human A1 receptor, forskolin, agonist CPA
T2 construct: expressed in transfected cells; host or cells: CHO
T2 sequence (P30542 1-326): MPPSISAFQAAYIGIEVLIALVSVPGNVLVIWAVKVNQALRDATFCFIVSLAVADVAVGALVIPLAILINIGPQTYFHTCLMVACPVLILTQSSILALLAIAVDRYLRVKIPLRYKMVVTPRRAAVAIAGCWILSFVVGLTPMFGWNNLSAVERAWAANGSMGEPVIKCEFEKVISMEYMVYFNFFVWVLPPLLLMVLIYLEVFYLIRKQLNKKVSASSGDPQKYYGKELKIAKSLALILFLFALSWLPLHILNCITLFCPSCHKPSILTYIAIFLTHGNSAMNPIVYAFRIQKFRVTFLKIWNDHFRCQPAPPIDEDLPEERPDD
Method in brief: as §1

A2B receptors = target: T3, A2B receptors (Homo sapiens, UniProt P29275); assay: functional cAMP (HTRF) assay, recombinant HEK293 cells expressing human A2B receptor, agonist NECA; set-up: expressed in transfected cells; host or cells: HEK293
T3 sequence (P29275 1-332): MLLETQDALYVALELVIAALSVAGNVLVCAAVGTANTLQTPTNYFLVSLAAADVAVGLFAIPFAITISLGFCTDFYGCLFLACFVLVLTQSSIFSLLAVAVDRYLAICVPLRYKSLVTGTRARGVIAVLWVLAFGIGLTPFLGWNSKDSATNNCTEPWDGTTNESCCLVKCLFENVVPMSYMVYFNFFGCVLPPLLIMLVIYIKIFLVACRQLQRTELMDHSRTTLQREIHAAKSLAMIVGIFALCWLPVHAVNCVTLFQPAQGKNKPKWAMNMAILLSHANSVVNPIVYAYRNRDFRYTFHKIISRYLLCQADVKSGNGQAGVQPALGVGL

human A2A receptor = target: T4, human A2A receptor (Homo sapiens, UniProt P29274); assay: functional cAMP (HTRF) assay, recombinant HEK293 cells expressing human A2A receptor, agonist NECA
T4 construct: expressed in transfected cells; host or cells: HEK293
T4 sequence (P29274 whole entry): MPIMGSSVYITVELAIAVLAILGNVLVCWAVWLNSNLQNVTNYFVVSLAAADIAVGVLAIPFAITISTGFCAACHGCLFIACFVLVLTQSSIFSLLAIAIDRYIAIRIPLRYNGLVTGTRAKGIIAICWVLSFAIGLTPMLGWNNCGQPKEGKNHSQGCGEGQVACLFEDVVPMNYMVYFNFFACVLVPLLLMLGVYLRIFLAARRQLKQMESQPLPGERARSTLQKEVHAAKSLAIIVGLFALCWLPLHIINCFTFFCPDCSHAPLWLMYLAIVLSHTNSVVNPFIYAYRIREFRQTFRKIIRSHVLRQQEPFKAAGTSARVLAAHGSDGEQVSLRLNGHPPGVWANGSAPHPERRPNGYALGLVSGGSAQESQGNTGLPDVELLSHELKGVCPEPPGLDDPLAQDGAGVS

| IC50 (human A3 receptor) [nM] | IC50 (human A1 receptor) [nM] | IC50 (A2B receptors) [nM] | IC50 (human A2A receptor) [nM] | Compound |
| --- | --- | --- | --- | --- |
| < 1000 | < 1000 | < 1000 | < 100 | COc1ccc(-c2cnn(C)c2)c2nc(NC(=O)c3ccon3)[nH]c12 [compound 84, N-[7-methoxy-4-(1-methyl-1H-pyrazol-4-yl)-1H-1,3-benzodiazol-2-yl]-1,2-oxazole-3-carboxamide] |
| < 100 | > 1000 | < 1000 | < 10 | COCc1ccc(C(=O)Nc2nc3c(-c4cnn(C)c4)ccc(OC)c3[nH]2)cc1 [compound 49, N-[7-methoxy-4-(1-methyl-1H-pyrazol-4-yl)-1H-1,3-benzodiazol-2-yl]-4-(methoxymethyl)benzamide] |
| < 1000 | < 1000 | < 10 | < 10 | COc1ccc(-c2ccccc2)c2nc(NC(=O)c3c[nH]c(C)n3)[nH]c12 [compound 255, N-(7-methoxy-4-phenyl-1H-1,3-benzodiazol-2-yl)-2-methyl-1H-imidazole-4-carboxamide] |
| < 10 | < 1000 | < 1000 | < 10 | COc1ccc(-c2cnn(C)c2)c2nc(NC(=O)c3ccnc(Br)c3)[nH]c12 [compound 95, 2-bromo-N-[7-methoxy-4-(1-methyl-1H-pyrazol-4-yl)-1H-1,3-benzodiazol-2-yl]pyridine-4-carboxamide] |
| < 100 | > 1000 | < 1000 | < 10 | COc1ccc(-c2ccccc2)c2nc(NC(=O)c3ccnc(N4CCOCC4)c3)[nH]c12 [compound 7, N-(7-Methoxy-4-phenyl-1H-benzoimidazol-2-yl)-2-morpholin-4-yl-isonicotinamide] |
| > 1000 | > 1000 | < 1000 | < 100 | COc1ccc(-c2cnn(C)c2)c2nc(NC(=O)c3ccc(C(=O)N(C)C)nc3)[nH]c12 [compound 162, N5-[7-methoxy-4-(1-methyl-1H-pyrazol-4-yl)-1H-1,3-benzodiazo1-2-yl]-N2,N2-dimethylpyridine-2,5-dicarboxamide] |
| < 1000 | < 1000 | < 100 | < 10 | COCCOc1cccc(-c2ccc(OC)c3nc(NC(=O)N4CCC(C)(O)CC4)[nH]c23)c1 [compound 236, 4-hydroxy-N-{4-methoxy-7-[3-(2-methoxyethoxy)phenyl]-1H-1,3-benzodiazol-2-yl}-4-methylpiperidine-1-carboxamide] |
| < 1000 | > 1000 | < 1000 | < 10 | COc1ccc(-c2cnn(C)c2)c2nc(NC(=O)c3ccnc(N4CCC(C)(O)CC4)c3)[nH]c12 [compound 105] |
| < 1000 | < 1000 | < 10 | < 10 | COc1ccc(-c2ccccc2)c2nc(NC(=O)c3c[nH]cn3)[nH]c12 [compound 253, N-(7-methoxy-4-phenyl-1H-1,3-benzodiazol-2-yl)-1H-imidazole-4-carboxamide] |
| > 1000 | > 1000 | > 1000 | < 10 | COc1ccc(N2CCOCC2)c2nc(NC(=O)c3ccc(O)c(N)c3)[nH]c12 [compound 99, 3-amino-4-hydroxy-N-[7-methoxy-4-(morpholin-4-yl)-1H-1,3-benzodiazol-2-yl]benzamide] |
| > 1000 | > 1000 | > 1000 | < 10 | COc1ccc(C2CCOCC2)c2nc(NC(=O)c3ccnc(N4CCC5(CCOC5)C4)c3)[nH]c12 (stereo not drawn) [compound 119, N-[7-methoxy-4-(oxan-4-yl)-1H-1,3-benzodiazol-2-yl]-2-{2-oxa-7-azaspiro[4.4]nonan-7-yl}pyridine-4-carboxamide] |
| < 1000 | > 1000 | < 1000 | < 100 | COc1ccc(-c2cnn(C)c2)c2nc(NC(=O)c3ccc4occc4c3)[nH]c12 [compound 80, N-[7-methoxy-4-(1-methyl-1H-pyrazol-4-yl)-1H-1,3-benzodiazol-2-yl]-1-benzofuran-5-carboxamide] |
| < 1000 | < 1000 | < 10 | < 10 | COc1ccc(-c2cccc(F)c2)c2nc(NC(=O)c3ccc(C(=O)N(C)C)cc3)[nH]c12 [compound 240, N4-[4-(3-fluorophenyl)-7-methoxy-1H-1,3-benzodiazol-2-yl]-N1,N1-dimethylbenzene-1,4-dicarboxamide] |
| > 1000 | > 1000 | > 1000 | < 10 | COc1ccc(C2CCOCC2)c2nc(NC(=O)c3ccnc(N4CCC(C)(O)C4)c3)[nH]c12 (stereo not drawn) [compound 122, 2-(3-hydroxy-3-methylpyrrolidin-1-yl)-N-[7-methoxy-4-(oxan-4-yl)-1H-1,3-benzodiazol-2-yl]pyridine-4-carboxamide] |
| < 1000 | < 1000 | < 100 | < 10 | COc1ccc(-c2cccc(F)c2)c2[nH]c(NC(=O)c3c[nH]cn3)nc12 [compound 265, N-[7-(3-fluorophenyl)-4-methoxy-1H-1,3-benzodiazol-2-yl]-1H-imidazole-4-carboxamide] |
| > 1000 | < 1000 | < 100 | < 10 | COc1ccc(-c2cccc(F)c2)c2nc(NC(=O)N3CCC(C)(O)CC3)[nH]c12 [compound 217, N-[4-(3-fluorophenyl)-7-methoxy-1H-1,3-benzodiazol-2-yl]-4-hydroxy-4-methylpiperidine-1-carboxamide] |
| > 1000 | < 1000 | < 1000 | < 100 | COc1ccc(-c2cnn(C)c2)c2nc(NC(=O)N3CCC(Oc4ccccc4)CC3)[nH]c12 [compound 54, N-[7-methoxy-4-(1-methyl-1H-pyrazol-4-yl)-1H-1,3-benzodiazol-2-yl]-4-phenoxypiperidine-1-carboxamide] |
| < 1000 | < 1000 | < 10 | < 100 | COc1ccc(-c2ccccc2)c2nc(NC(=O)c3ccc(N4C(=O)CCC4=O)cc3)[nH]c12 [compound 285, 4-(2,5-dioxopyrrolidin-1-yl)-N-(7-methoxy-4-phenyl-1H-1,3-benzodiazol-2-yl)benzamide] |
| > 1000 | > 1000 | > 1000 | < 10 | COc1ccc(C2CCOCC2)c2nc(NC(=O)N3CC[C@@]4(CCOC4)C3)[nH]c12 [compound 150, (5R)-N-[7-methoxy-4-(oxan-4-yl)-1H-1,3-benzodiazol-2-yl]-2-oxa-7-azaspiro[4.4]nonane-7-carboxamide] |
| < 1000 | < 1000 | < 10 | < 10 | COc1ccc(-c2ccccc2)c2[nH]c(NC(=O)c3ccc(C(=O)NCCO)cc3)nc12 [compound 312, N1-(2-hydroxyethyl)-N4-(4-methoxy-7-phenyl-1H-1,3-benzodiazol-2-yl)benzene-1,4-dicarboxamide] |
| < 1000 | < 1000 | < 100 | < 100 | COCCn1cc(C(=O)Nc2nc3c(-c4ccc5[nH]nc(C)c5c4)ccc(OC)c3[nH]2)cn1 [compound 282, N-[7-methoxy-4-(3-methyl-1H-indazol-5-yl)-1H-1,3-benzodiazol-2-yl]-1-(2-methoxyethyl)-1H-pyrazole-4-carboxamide] |
